The test system of assay [1] is A549 NSCLC cells. Nature of the assay: Cellular cytotoxicity assay (Alamar Blue), A549. The following applies: Homo sapiens, 72 h, upper end given as ≧100, read-out: IC50 (μM), cytotoxicity towards A549 NSCLC cells. It is filed as cell-based. In outline:
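Resazurin-to-resorufin fluorescence (ex 544, em 590 nm, after 4 h) gave viability as % of untreated cells following 72 h compound exposure at 37 °C. Compounds were added in semi-logarithmic dilutions 24 h post-seeding, quadruplicate wells; IC50 fitted by non-linear regression of concentration-effect curves.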
For orientation: Alamar Blue is a resazurin reagent that responds to reducing activity.

The test system of assay [2] is A549 NSCLC cells. As to the kind of experiment: Cell cycle analysis by flow cytometry. It is filed as cell-based, human. The note with it: A549, 24 h treatment. As to the method: A549 NSCLC cells (ATTC CCL-185) are cultivated in DMEM with high glucose (supplemented with 10% FBS) at 5% CO2 and 37° C. in a humidified atmosphere under standard cell culture conditions. 24 h before compound treatment, cells are seeded at 5×10^4 cells/ml (=5×10^5 cells/10 cm cell culture dish) to allow logarithmic proliferation during the experiment. After 24 h, cells were treated with test compound or 0.5 vol % DMSO as a control. After 24 h and 48 h treatment, the culture medium is collected and detached, floating cells are collected by short centrifugation (5 min at 1200 rpm). Attached cells are washed once with 5 ml PBS, detached by treatment with 3 ml trypsin/EDTA solution (short incubation for 3-5 min) and—together with detached, floating cells—transferred into 15 ml Falcon tubes. The cell culture dish is washed with 10 ml DMEM to collect all remaining cells. After centrifugation for 5 min at 1200 rpm at room temperature, the supernatant is discarded and the cell pellet washed twice with 10 ml PBS. The supernatant is discarded, the cells resuspended in 4 ml ice-cold fixation solution (70 vol % ethanol, 30 vol % H2O; stored at −20° C.) and stored at −20° C. overnight. Next, 10 ml PBS (4° C.) is added to the cells, before centrifugation for 5 min at 1200 rpm (4° C.). The supernatant is discarded, the cell pellet washed once with 10 ml PBS (4° C.) and the cell pellet finally resuspended in about 1 ml staining solution (10 μg/ml RNAse A, 10 μg/ml propidiumiodide in PBS, final volume dependent on cell number). After incubation for 30 min at room temperature in the dark, cells are stored on ice and analyzed using the Becton Dickinson FACS Canto device. Analysis is done at an excitation of λ=488 nm with emission set as λ=600 nm.
Data analysis: Cells are analyzed according to size, granularity and propidiumiodide intensity. Size and granularity of cells are determined by measurement of forward scatter (FSC) and side scatter (SSC) of the λ=488 nm excitation light, respectively. To discriminate cells with 4N DNA content from cell doublets (two attached cells with 2N DNA content each), the ratio between the area under the propidiumiodide peak (PE-A) and the height of the propidiumiodide peak (PE-H) for each cell is determined. Cell doublets need more time to pass through the laser beam, which causes a broadening of the propidiumiodide peak and an increase of the ratio PE-A/PE-H. Using this analysis, cells in 4N and cell doublets appear as distinct clouds in a scatter plot and are excluded from the analysis. Thus, the area under the propidiumiodide peak at λ=600 nm (PE-A) is a measure for the DNA content of the cells. PE-A is blotted against the measured cell number in a histogram in order to determine the percentage of analyzed cells in an individual stage of the cell cycle.
(In general: A flow cytometer gives signals particle by particle.)

The values that follow come from patent US8440830B2, “Tetrahydro-fused pyridines as histone deacetylase inhibitors” (4SC AG, priority 2007, dated 2013).

One may read the IC50 as the concentration that inhibits the measured activity by half.

Some results are limits rather than exact numbers.

Consider `COc1ccc(NC(=O)N2CCc3nc(C(=O)Nc4ccccc4N)sc3C2)cc1` [Example 3, N^2-(2-aminophenyl)-N5-(4-methoxyphenyl)-6,7-dihydro[1,3]thiazolo[5,4-c]pyridine-2,5(4H)-dicarboxamide], for which the concentration for half-maximal inhibition (IC50) in the assay with A549 NSCLC cells [1] is at least 0.2 µM. The “concentration inducing arrest in G1, depletion of cells in the S-phase and reduction of cells in the G2/M-phase” value with A549 NSCLC cells [2] is listed as “around 3 μM”.

Consider `Nc1ccccc1NC(=O)c1nc2c(s1)CN(C(=O)Nc1cnc3ccccc3c1)CC2` [Example 12, N^2-(2-aminophenyl)-N5-quinolin-3-yl-6,7-dihydro[1,3]thiazolo[5,4-c]pyridine-2,5(4H)-dicarboxamide], for which the half-maximal inhibitory concentration (IC50) in the assay with A549 NSCLC cells [1] is at least 0.2 µM. Also, in the assay with A549 NSCLC cells [2], the “concentration inducing arrest in G1, depletion of cells in the S-phase and reduction of cells in the G2/M-phase” value is recorded as “around 3 μM”.

On to `CN(C)c1ccc(NC(=O)N2CCc3nc(C(=O)Nc4ccccc4N)sc3C2)cc1` [Example 2, N^2-(2-aminophenyl)-N5-[4-(dimethylamino)phenyl]-6,7-dihydro[1,3]thiazolo[5,4-c]pyridine-2,5(4H)-dicarboxamide], for which the IC50 with A549 NSCLC cells [1] was at least 0.2 µM. The “concentration inducing arrest in G1, depletion of cells in the S-phase and reduction of cells in the G2/M-phase” value in the assay on A549 NSCLC cells [2] is reported as “around 3 μM”.

For `Nc1ccccc1NC(=O)c1nc2c(s1)CN(C(=O)Nc1ccc(-c3ccccc3)cc1)CC2` [Example 1, N^2-(2-aminophenyl)-N5-biphenyl-4-yl-6,7-dihydro[1,3]thiazolo[5,4-c]pyridine-2,5(4H)-dicarboxamide], in the assay with A549 NSCLC cells [1], the IC50 was at least 0.2 µM. Besides, the “concentration inducing arrest in G1, depletion of cells in the S-phase and reduction of cells in the G2/M-phase” value with A549 NSCLC cells [2] was “around 3 μM”.
